The results in this text go back to PubChem BioAssay AID1996.

The structures appear in SMILES notation. Converted amounts (≈) assume the structure as drawn.

As usually defined, the kinetic solubility is solubility judged after dilution from a stock solution rather than from solid.

For this data set the following is noted: buffer; pH 7.4; 200.0 µM.
Consider `COc1cc(C2/C(=C(\O)c3ccc4c(c3)OCCO4)C(=O)C(=O)N2Cc2ccco2)ccc1O` (stereo unspecified), for which the solubility (kinetic) worked out at 66.7 µg/mL (≈ 144 µM). As for `Oc1c(Cl)cc(Cl)c2c1NCCC2`, the figure is 7 µg/mL (≈ 32.1 µM); as for `N#C/C(=C(/O)c1ccc(C(=O)c2ccccc2)cc1)c1nc2ccccc2[nH]1`, under 0.3 µg/mL; as for `CC(Oc1cccc(Br)c1)C(=O)Nc1cccc(S(=O)(=O)N2CCOCC2)c1` (stereo unspecified), 16.2 µg/mL (≈ 34.5 µM). As for `N#Cc1c(Cl)cccc1N1CCCC1`, the figure is 2 µg/mL (≈ 9.68 µM). As for `CCC(=O)N/C(=N/c1nc(C)cc(C)n1)Nc1ccc(C)cc1`, the figure is 1.7 µg/mL (≈ 5.46 µM); as for `CCN(CC(=O)Nc1ccc2c(c1)OCCO2)C(=O)/C=C/c1cccc(C(F)(F)F)c1`, 3.6 µg/mL (≈ 8.29 µM); as for `Cc1cccc2nc(CSc3ncccc3C(=O)O)cn12`, 39.3 µg/mL (≈ 131 µM).

Regarding `CS(=O)(=O)N(CC(=O)Nc1ccccc1F)C1CCCCC1`, the solubility (kinetic) stood at 47.3 µg/mL (≈ 144 µM). As for `CCc1ccccc1NC(=O)CC(NCc1ccccc1)C(=O)O` (stereo unspecified), the figure is over 49 µg/mL. Compound `COc1ccccc1C(=O)NCCCCNC(=O)c1ccccc1OC` showed a kinetic solubility of over 53.5 µg/mL. As to `CN(C)c1cccc(NC(=O)c2ccco2)c1`, the solubility (kinetic) was over 34.5 µg/mL.

Compound `Cn1c(O)c(/C=C2\C=Nc3ccc(Br)cc32)c(=O)n(C)c1=O` displayed a kinetic solubility of 0.9 µg/mL (≈ 2.48 µM). `COc1ccc(CCNC(=O)Nc2ccc3c(c2)OCO3)cc1OC` yielded a solubility (kinetic) of 5.3 µg/mL (≈ 15.4 µM).

Consider `O=C(COC(=O)c1ccc2ccccc2n1)c1ccccc1`, for which the solubility (kinetic) is 42.3 µg/mL (≈ 145 µM). As for `O=C(Nc1ccc(Br)cn1)C1CCN(S(=O)(=O)c2cccs2)CC1`, the figure is under 0.3 µg/mL; as for `Cc1cccc(OCCOC(=O)c2c(-c3ccccc3)noc2C)c1`, 1.1 µg/mL (≈ 3.26 µM). `CC(NC(=O)CN(C)Cc1cccc(Cl)c1)c1ccccc1` (stereo unspecified) showed a kinetic solubility of 38.6 µg/mL (≈ 122 µM). The value for `CC(C)Cc1ccc(S(=O)(=O)Nc2ccc3[nH]c(=O)[nH]c3c2)cc1` was 1.1 µg/mL (≈ 3.18 µM); that for `O=C(CSc1ccccc1F)NCCCN1CCCC1=O` was over 46.6 µg/mL.

In the case of `CN(C)NC(=S)NC1CC2CCC1C2` (stereo unspecified), the kinetic solubility is over 32 µg/mL. As for `O=C(CN1CCCC1)Nc1cccc(Cl)c1Cl`, the figure is 28.4 µg/mL (≈ 104 µM). As for `O=C(CCCO)NC1Cc2ccccc2C1`, the figure is 31.7 µg/mL (≈ 145 µM); as for `Cc1cc(C)nc(/N=C(\N)Nc2ccc(OCCC(C)C)cc2)n1`, over 49.1 µg/mL. Take `CC1(C)NC(=O)N(CC(=O)OCC(=O)c2ccc(Br)s2)C1=O`: the kinetic solubility is over 58.4 µg/mL. Consider `C/C(=N\Nc1nccnc1Cl)c1ccc(F)cc1`, for which the kinetic solubility was over 39.7 µg/mL. `CCN(CC)C(=O)CSc1nc(-c2ccccc2)ccc1C#N` came in with a solubility (kinetic) of 0.6 µg/mL (≈ 1.84 µM). As for `CCOC(=O)C1(C)Oc2cccnc2NC1=O` (stereo unspecified), the figure is 35.2 µg/mL (≈ 149 µM); as for `CS(=O)(=O)N1CCCC(C(=O)Nc2ccccc2C(F)(F)F)C1` (stereo unspecified), over 52.6 µg/mL; as for `CC(C)N1C(=O)C(=O)N(CC(=O)N2CCc3ccccc32)C1=O`, over 47.3 µg/mL. The value for `COc1ccc([N+](=O)[O-])cc1NC(=O)c1ccco1` was 4.3 µg/mL (≈ 16.4 µM); that for `O=C(Nc1cccc([N+](=O)[O-])c1)NC1CCCCCCC1` was 3.8 µg/mL (≈ 13 µM); that for `CCOC(=O)N1CCc2c(sc3nc[nH]c(=O)c23)C1` was 38.9 µg/mL (≈ 139 µM).

`O=C(Nc1ccc(OC(F)F)c(Cl)c1)c1ccccn1` registered a solubility (kinetic) of 1.4 µg/mL (≈ 4.69 µM).

For `Cl.Nc1ccc2nc(CCCO)[nH]c2c1`, the kinetic solubility was over 39.6 µg/mL.

For the compound `Cc1c(C(=O)NCc2ccccc2F)oc2ccccc12`, the kinetic solubility amounted to 1.5 µg/mL (≈ 5.29 µM). The value for `CC(OC(=O)c1cc[n+]([O-])cc1)C(=O)NCc1ccccc1` (stereo unspecified) was over 45 µg/mL; that for `Cc1ccc(C)c(NC(=O)CN(C)C(=O)COc2ccc3ccccc3c2)c1` was 3.1 µg/mL (≈ 8.23 µM). On to `CCOP(=O)(OCC)/C(C#N)=C(\O)c1ccc(OC)cc1`, for which the solubility (kinetic) was over 46.7 µg/mL. The value for `COCCCNC(=O)C(=O)Nc1cc2c3c(c1)CCN3C(=O)CC2` was 49.4 µg/mL (≈ 149 µM). As for `O=C(Nc1ccc(F)cc1F)Nc1csc2ccccc12`, the figure is 0.6 µg/mL (≈ 1.97 µM).
